{"source": "paper PMC7248394", "about": "(Frontiers in Chemistry, 2020)", "key": {"[1]": {"biological_target": "T1, IN1−288 F185K/C250S (HIV-1 integrase) (Human immunodeficiency virus type 1 group M subtype B, UniProt P12497, C1427S/F1332K)", "T1 construct": "we first expressed and purified IN1−288 F185K/C250S as previously described; made in house", "experiment": "Fluorescence anisotropy binding of fluorescein-labeled IN181−188 peptides to IN", "conditions": "for Hill coefficient (n): fluorescence anisotropy, IN titrated into 100 nM fluorescein-labeled peptide, 10°C, ionic strength 1 M (NaCl), fit to Hill equation", "method": "To test the activity of the cyclic peptide-peptoid hybrids, we first expressed and purified IN1−288 F185K/C250S as previously described (Gabizon et al., [2013]). The double mutant protein was used since it has similar activity as the wild-type but higher solubility (Jenkins et al., [1996]). […] The Hill coefficient for all the cyclic peptides was approximately 4, indicating cooperative binding of the peptides to tetrameric IN.\nIN was titrated into a solution of 100 nM fluorescein labeled (Fl) IN181−188 cyclic peptides and into linear IN181−188, which served as a control. Anisotropy measurements were performed generally as described (Friedler et al., [2002]) at 10°C with ionic strength of 1 M (adjusted by NaCl) and the binding curves were fit to the Hill equation (Figure 8, Table 1)."}, "trypsin": {"tested_on": "trypsin", "experiment": "7 μL of 8 μM trypsin added to peptide in 360 μL of HEPES 20 mM pH = 7.5", "conditions": "37 °C, up to about 30 h"}}, "note": "“Also recorded” adds a separate entry of the source. Residues, ends and D or L forms follow the SMILES beside them. *: point of attachment. 5FAM = O=C1OC2(c3ccc(O)cc3Oc3cc(O)ccc32)c2ccc(C(=O)*)cc21", "data": [{"molecule": "CC[C@H](C)[C@@H]1NC(=O)[C@H](Cc2ccccc2)NC(=O)CN(C(=O)[C@H](Cc2c[nH]c3ccccc23)NC(=O)c2ccc3c(c2)C(=O)OC32c3ccc(O)cc3Oc3cc(O)ccc32)CCCn2cc(nn2)CN(CC(N)=O)C(=O)[C@H](CCCCN)NC(=O)[C@H](CCCNC(=N)N)NC(=O)[C@H](CCCCN)NC(=O)[C@H](Cc2ccccc2)NC(=O)[C@H](CC(N)=O)NC(=O)[C@H](Cc2c[nH]cn2)NC1=O", "note": "[Fl-C-1]", "values": [{"measurement": "Kd", "setting": "[1]", "value": "8.1 ± 0.2", "unit": "µM"}, {"measurement": "Hill coefficient (n)", "setting": "[1]", "value": "3.8 ± 0.4"}]}, {"molecule": "CC[C@H](C)[C@@H]1NC(=O)[C@H](Cc2ccccc2)NC(=O)CN(C(=O)[C@H](Cc2c[nH]c3ccccc23)NC(=O)c2ccc3c(c2)C(=O)OC32c3ccc(O)cc3Oc3cc(O)ccc32)Cc2cn(nn2)CCCN(CC(N)=O)C(=O)[C@H](CCCCN)NC(=O)[C@H](CCCNC(=N)N)NC(=O)[C@H](CCCCN)NC(=O)[C@H](Cc2ccccc2)NC(=O)[C@H](CC(N)=O)NC(=O)[C@H](Cc2c[nH]cn2)NC1=O", "note": "[Fl-C-2]", "values": [{"measurement": "Kd", "setting": "[1]", "value": "9 ± 0.2", "unit": "µM"}, {"measurement": "Hill coefficient (n)", "setting": "[1]", "value": "3.8 ± 0.3"}]}, {"molecule": "CC[C@H](C)[C@@H]1NC(=O)[C@H](Cc2ccccc2)NC(=O)CN(C(=O)[C@H](Cc2c[nH]c3ccccc23)NC(=O)c2ccc3c(c2)C(=O)OC32c3ccc(O)cc3Oc3cc(O)ccc32)CCn2cc(nn2)CN(CC(N)=O)C(=O)[C@H](CCCCN)NC(=O)[C@H](CCCNC(=N)N)NC(=O)[C@H](CCCCN)NC(=O)[C@H](Cc2ccccc2)NC(=O)[C@H](CC(N)=O)NC(=O)[C@H](Cc2c[nH]cn2)NC1=O", "note": "[Fl-C-3]", "values": [{"measurement": "Kd", "setting": "[1]", "value": "7.7 ± 0.5", "unit": "µM"}, {"measurement": "Hill coefficient (n)", "setting": "[1]", "value": "2.8 ± 0.5"}]}, {"molecule": "CC[C@H](C)[C@@H]1NC(=O)[C@H](Cc2ccccc2)NC(=O)CN(C(=O)[C@H](Cc2c[nH]c3ccccc23)NC(=O)c2ccc3c(c2)C(=O)OC32c3ccc(O)cc3Oc3cc(O)ccc32)Cc2cn(nn2)CCN(CC(N)=O)C(=O)[C@H](CCCCN)NC(=O)[C@H](CCCNC(=N)N)NC(=O)[C@H](CCCCN)NC(=O)[C@H](Cc2ccccc2)NC(=O)[C@H](CC(N)=O)NC(=O)[C@H](Cc2c[nH]cn2)NC1=O", "note": "[Fl-C-4]", "values": [{"measurement": "Kd", "setting": "[1]", "value": "7 ± 0.2", "unit": "µM"}, {"measurement": "Hill coefficient (n)", "setting": "[1]", "value": "2.5 ± 0.2"}]}, {"molecule": "CC[C@H](C)[C@H](NC(=O)[C@H](Cc1ccccc1)NC(=O)CNC(=O)[C@H](Cc1c[nH]c2ccccc12)NC(=O)c1ccc2c(c1)C(=O)OC21c2ccc(O)cc2Oc2cc(O)ccc21)C(=O)N[C@@H](Cc1c[nH]cn1)C(=O)N[C@@H](CC(N)=O)C(=O)N[C@@H](Cc1ccccc1)C(=O)N[C@@H](CCCCN)C(=O)N[C@@H](CCCNC(=N)N)C(=O)N[C@@H](CCCCN)C(=O)NCC(N)=O", "note": "[Fl-WT IN181−188, reference compound] (5FAM-WGFIHNFKRKG-NH2; N-terminus assumed)", "values": [{"measurement": "Kd", "setting": "[1]", "value": "7.6 ± 0.2", "unit": "µM"}, {"measurement": "Hill coefficient (n)", "setting": "[1]", "value": "3.6 ± 0.4"}]}, {"molecule": "H2N-W-G(N-alkyl)-F-I-H-N-F-K-R-K-G(N-alkyl)-NH2, the two N-alkyl groups joined by a triazole bridge (n=3, R=H)", "values": [{"measurement": "fragment found", "setting": "trypsin", "value": "digested C-2 (C-2 + 18 Da, addition of water)"}]}, {"molecule": "H2N-W-G(N-propargyl)-F-I-H-N-F-K-R-K-G(N-(CH2)3-N3)-NH2", "values": [{"measurement": "fragment found", "setting": "trypsin", "value": "G(N-propargyl)FIHNFKR, major; also recorded: G(N-propargyl)FIHNFK"}]}]}
